According to patent US11565998B2, “Succinate prodrug, compositions containing the succinate prodrug and uses thereof” (ABLIVA AB, priority 2019, dated 2023):
≈ marks a conversion by molar mass, not a printed value. Blank lines part the entries; values can stand above or below the compound they belong to.

Assays:
[1] = Solubility in aqueous formulations in comparison to other succinate prodrugs; type: physicochemical; details: pH 7.4, aqueous buffer, thermodynamic from solid; PBS pH7.4
Protocol: Solubility of Compound 1 in aqueous formulations in comparison to other succinate prodrugs was assessed by dissolving solid material in aqueous formulations and measuring the quantity in solution by HPLC (−MS). […] In many cases the max solubility of other prodrugs was lower than 100 uM. See Table 21 for example solubility data in PBS pH7.4 for other succinate prodrugs.

[2] = Caco-2 bioavailability in vitro assay (apparent permeability); type: in vitro ADME; details: human; Caco-2, apical to basolateral, 0.01 mM, pH 7.4, 1 h, 37° C.
Protocol: The cell penetrance and potential for oral bioavailability of Compound 1 was tested using a standard caco-2 bioavailability in vitro assay (in brief, confluent Caco-2 cells (L1, A. P., 1992; Grass, G. M; et al., 1992, Volpe, D. A., et al., 2001) in a 24 well Corning Costar Transwell format were provided by In Vitro Technologies Inc. (IVT Inc., Baltimore, Md., USA). The apical chamber contained 0.15 mL Hank's balanced buffer solution (HBBS) pH 7.4, 1% DMSO, 0.1 mM Lucifer Yellow. The basal chamber contained 0.6 mL HBBS pH 7.4, 1% DMSO. Controls and tests were incubated at 37° C. in a humidified incubator, shaken at 130 rpm for 1 h. Lucifer Yellow permeates via the paracellular (between the tight junctions) route only, a high Apparent Permeability (Papp) for Lucifer Yellow indicates cellular damage during assay and all such wells were rejected. Propranolol (good passive permeation with no known transporter effects) & acebutalol (poor passive permeation attenuated by active efflux by P-glycoprotein) were used as reference compounds. Compounds were tested in a uni- and bi-directional format by applying compound to the apical or basal chamber (at 0.01 mM). Compounds in the apical or basal chambers were analysed by HPLC-MS. Results were expressed as Apparent Permeability, Papp, (nm/s), in comparison to other succinate prodrugs, including a number from WO2015/155231.

[3] = Solubility of batches of different crystallinity; type: physicochemical
Protocol: Two batches of Compound 1 were generated with different crystallinity. Batch 2 had higher crystallinity than Batch 3, which is regarded as having a higher degree of amorphous Compound 1-Batch 2 is therefore regarded as a more crystalline batch, whereas Batch 3 is regarded as a more amorphous batch. The methods used are discussed in this document.
A sample of the more amorphous Compound 1 batch 3 was added to PBS or water to a final concentration of 258 mg/mL and sonicated for 10 minutes, then shaken for 30 minutes.
A sample of the more crystalline Compound 1 batch 2 was added to HPLC-grade water (Fisher) to a final concentration of 30 mg/mL and sonicated for 10 minutes, then shaken for 30 minutes.
A sample of the more crystalline Compound 1 batch 2 was added to HPLC-grade water (Fisher) to a final concentration of 52 mg/mL and sonicated for 20 minutes, then shaken for 1 hour.
A sample of the more crystalline Compound 1 batch 2 was added to HPLC-grade water (Fisher) to a final concentration of […] and sonicated for 20 minutes, then shaken for 1.5 hours.

[4] = Stability in purified (HPLC grade) or non-purified (tap) water; type: physicochemical; details: 1 mg/ml, room temperature
Protocol: A side-by-side experiment of the stability of Compound 1 in ‘purified’ HPLC grade water (Fisher Scientific) and ‘non-purified’ tap water was set up. In brief, 1 mg/mL solutions of Compound 1 were generated in ‘purified’ HPLC grade water (Fisher Scientific) and ‘non-purified’ tap water. These were incubated at room temperature for up to 10 days. Concentration and purity of Compound 1 was assessed over time by HPLC in comparison to a standard (AUC of 8.21 RT peak at 230 nm for calculated concentration and AUC of Compound 1 peak vs impurities for purity analysis). Data presented is the average of two samples.

[5] = Kinetic solubility (turbidity at 620 nm, dissolution rate constant); type: physicochemical; details: dissolution in PBS at 5° C., 460 mg/ml final concentration, 3 mins
Protocol: Solid Compound 1 Batches s3, s12-17 (˜80 mg) were added to wells of a flat clear bottom 96 well plate. PBS at 5° C. was added to give a 460 mg/ml final concentration of 01-354 for all batches. After addition of the PBS, the plate was agitated for 10 s then immediately analysed for turbidity at 620 nm in real time for 3 mins by an Epoch Microplate Spectrophotometer (BioTek). A rate constant for the dissolution was calculated from the exponential decay fit of the recorded data.

[6] = Aqueous formulations of Compound 1 (water, PBS, saline), concentration by HPLC; type: physicochemical; details: for Calculated concentration by HPLC: 50% w/v in 100 mM PBS pH 7.4; for Calculated Conc.: tap water, target conc. 400 mg/ml; for 400 mg Compound in 0.7 ml Water, Measured Conc.: 400 mg in 0.7 ml
Protocol: Formulation Protocol • 1. Weigh out the required amount of Compound 1 then add the required amount of excipient (0.9% w/v saline, 100 mM PBS pH 7.4, water) to the solid Compound 1 to give the required mg/ml concentration of Compound 1. For example, for a 400 mg/ml formulation of Compound 1 in water, weigh out 400 mg of Compound 1 and add 0.7 ml of water. • 2. Sonicate the solution for 10 mins and then shake for 20 mins to ensure that Compound 1 is fully dissolved. • 3. The solution can be centrifuged (13000 rpm, 10 mins) to remove any particulates if required. • 4. The solution can be sterile filtered if required.
˜500 mg of compound was weighed into a vial, ˜500 μl 100 mM PBS pH 7.4 added and the vial was sonicated for 10 mins then shaken for 20 mins. A sample was then removed, diluted 1/2000 and the concentration calculated by HPLC analysis.
Compound 1 batch 3 was heated in an oven to 60° C. for 20 mins, at which point it became a translucent pale-yellow liquid. 100 mM PBS pH 7.4 (20% v/v) was added and the solution was mixed for 20 mins on a shaker. […] The solution was placed at 4° C. for 72 hours.
Method: • 1. Saline (0.9% w/v) was added to Compound 1 batch 11 in different amounts then sonicated for 10 mins—the samples remained slightly cloudy • 2. The samples were shaken for 30 mins at which point the solutions became translucent • 3. The solutions were diluted for HPLC analysis

[7] = tested on: human peripheral blood cells; assay: Metformin effect on mitochondrial function and lactate production of human blood cells; type: cell-based
From the text: As mentioned above, increased lactate plasma levels are often observed in patients treated with drugs that may have mitochondrial-related side effects.

Structure (SMILES): CC(OC(=O)CCC(=O)O)OC(=O)CCC(=O)O [A, reference compound]
solubility [1]: 52 µM (≈ 13.6 µg/mL)

Structure (SMILES): COC(=O)CCC(=O)SCCNC(C)=O [Batch 2, Methyl 3-[(2-acetylaminoethylthio)carbonyl]propionate]
concentration reached ([3]; HPLC-grade water, added to 30 mg/mL, sonicated 10 minutes, shaken 30 minutes): 17000 µg/mL
concentration reached ([3]; HPLC-grade water, added to 52 mg/mL, sonicated 20 minutes, shaken 1 hour): 52000 µg/mL
concentration reached ([3]; HPLC-grade water, added to 2000 mg/mL, sonicated 20 minutes, shaken 1.5 hours): 850000 µg/mL
solubility at 1.5 h ([3]; HPLC-grade water, water, thermodynamic from solid, more crystalline Compound 1, read-out: water solubility): ≥ 850 mg/mL

Structure (SMILES): COC(=O)CCC(=O)SCCNC(C)=O [Batch 3, Methyl 3-[(2-acetylaminoethylthio)carbonyl]propionate]
Calculated Conc. ([4]; HPLC grade water, day 0): 1.02 mg/mL
Purity ([4]; HPLC grade water, day 0): 99.0%
Calculated Conc. ([4]; HPLC grade water, day 3): 1.04 mg/mL
Purity ([4]; HPLC grade water, day 3): 98.8%
Calculated Conc. ([4]; HPLC grade water, day 5): 1.03 mg/mL
Purity ([4]; HPLC grade water, day 5): 99.0%
Calculated Conc. ([4]; HPLC grade water, day 6): 1.01 mg/mL
Purity ([4]; HPLC grade water, day 6): 99.0%
Calculated Conc. ([4]; tap water, day 0): 1.06 mg/mL
Purity ([4]; tap water, day 0): 98.5%
Calculated Conc. ([4]; tap water, day 3): 0.98 mg/mL
Purity ([4]; tap water, day 3): 95.7%
Calculated Conc. ([4]; tap water, day 5): 0.93 mg/mL
Purity ([4]; tap water, day 5): 94.4%
Calculated Conc. ([4]; tap water, day 6): 0.89 mg/mL
Purity ([4]; tap water, day 6): 93.3%
Calculated Conc. ([4]; tap water, day 10): 0.83 mg/mL
Purity ([4]; tap water, day 10): 93.0%
Rate constants, k [5]: 0.014 s⁻¹
solubility at 30 min ([3]; PBS or water, water, thermodynamic from solid, PBS or water, added to 258 mg/mL, sonicated 10 minutes, shaken 30 minutes, read-out: concentration reached): ≥ 258 mg/mL
Calculated concentration by HPLC [6]: 535 mg/mL
appearance of liquid formulation ([6]; batch 3 melted at 60° C., 100 mM PBS pH 7.4 (20% v/v) added, 72 hours at 4° C.): remained a translucent liquid
Calculated Conc. [6]: 381 mg/mL
400 mg Compound in 0.7 ml Water, Measured Conc. [6]: 381 mg/mL

Structure (SMILES): COC(=O)CCC(=O)SCCNC(C)=O [Batch 4, Methyl 3-[(2-acetylaminoethylthio)carbonyl]propionate]
Calculated concentration by HPLC [6]: 526 mg/mL

Structure (SMILES): COC(=O)CCC(=O)SCCNC(C)=O [Batch 5, Methyl 3-[(2-acetylaminoethylthio)carbonyl]propionate]
Calculated concentration by HPLC [6]: 531 mg/mL

Structure (SMILES): COC(=O)CCC(=O)SCCNC(C)=O [Batch 6, Methyl 3-[(2-acetylaminoethylthio)carbonyl]propionate]
Calculated concentration by HPLC [6]: 543 mg/mL

Structure (SMILES): CC(=O)NCC(C)SC(=O)CCC(=O)OC(C)C (stereo not drawn) [D]
Papp A→B at 1 h, 0.01 mM [2]: 0.142 ×10⁻⁶ cm/s

Structure (SMILES): COC(=O)CCC(=O)SC(C)CNC(C)=O (stereo not drawn) [F]
Papp A→B at 1 h, 0.01 mM [2]: 0.145 ×10⁻⁶ cm/s

Structure (SMILES): CCOC(=O)CCC(=O)SC(C)CNC(C)=O (stereo not drawn) [G]
Papp A→B at 1 h, 0.01 mM [2]: 0.087 ×10⁻⁶ cm/s

Structure (SMILES): O=C1CNC(=O)[C@H](CSC(=O)CCC(=O)SC[C@@H]2NC(=O)CNC2=O)N1 [HI]
Papp A→B at 1 h, 0.01 mM [2]: 0.262 ×10⁻⁶ cm/s

Structure (SMILES): CC(=O)NCC(C)SC(=O)CCC(=O)OCC(C)(C)C (stereo not drawn) [L]
Papp A→B at 1 h, 0.01 mM [2]: 0.016 ×10⁻⁶ cm/s

Structure (SMILES): CN(C)C(=N)N=C(N)N [Metformin]
mitochondrial function at Complex I ([7]; human peripheral blood cells, concentrations relevant for metformin intoxication): inhibits mitochondrial function of human peripheral blood cells at Complex I in a time- and dose-dependent fashion
lactate production ([7]; intact platelets, over time): significant increase in lactate production

Next, values leading:

Papp A→B at 1 h, 0.01 mM [2]: 0.313 ×10⁻⁶ cm/s
Structure (SMILES): CCN(CC)C(=O)[C@H](CSC(=O)CCC(=O)OC(C)C)NC(C)=O [A]

Papp A→B at 1 h, 0.01 mM [2]: 0.192 ×10⁻⁶ cm/s
Structure (SMILES): CCN(CC)C(=O)[C@H](CSC(=O)CCC(=O)OC)NC(C)=O [B]

Rate constants, k [5]: 0.022 s⁻¹
Calculated Conc. [6]: 378 mg/mL
400 mg Compound in 0.7 ml Water, Measured Conc. [6]: 378 mg/mL
Structure (SMILES): COC(=O)CCC(=O)SCCNC(C)=O [Batch 12, Methyl 3-[(2-acetylaminoethylthio)carbonyl]propionate]

Rate constants, k [5]: 0.013 s⁻¹
Calculated Conc. [6]: 395 mg/mL
400 mg Compound in 0.7 ml Water, Measured Conc. [6]: 395 mg/mL
Structure (SMILES): COC(=O)CCC(=O)SCCNC(C)=O [Batch 13, Methyl 3-[(2-acetylaminoethylthio)carbonyl]propionate]

Rate constants, k [5]: 0.011 s⁻¹
Calculated Conc. [6]: 366 mg/mL
400 mg Compound in 0.7 ml Water, Measured Conc. [6]: 366 mg/mL
Structure (SMILES): COC(=O)CCC(=O)SCCNC(C)=O [Batch 14, Methyl 3-[(2-acetylaminoethylthio)carbonyl]propionate]

Rate constants, k [5]: 0.074 s⁻¹
400 mg Compound in 0.7 ml Water, Measured Conc. [6]: 414 mg/mL
Structure (SMILES): COC(=O)CCC(=O)SCCNC(C)=O [Batch 15, Methyl 3-[(2-acetylaminoethylthio)carbonyl]propionate]

Rate constants, k [5]: 0.055 s⁻¹
400 mg Compound in 0.7 ml Water, Measured Conc. [6]: 435 mg/mL
Structure (SMILES): COC(=O)CCC(=O)SCCNC(C)=O [Batch 16, Methyl 3-[(2-acetylaminoethylthio)carbonyl]propionate]

Rate constants, k [5]: 0.111 s⁻¹
Structure (SMILES): COC(=O)CCC(=O)SCCNC(C)=O [Batch 17, Methyl 3-[(2-acetylaminoethylthio)carbonyl]propionate]

Papp A→B at 1 h, 0.01 mM [2]: 0.128 ×10⁻⁶ cm/s
Structure (SMILES): CCOC(=O)CCC(=O)SCCNC(C)=O [C]

Papp A→B at 1 h, 0.01 mM [2]: < 0.021 ×10⁻⁶ cm/s
Structure (SMILES): CC(=O)NCCSC(=O)CCC(=O)OCC(C)(C)C [E]

Papp A→B at 1 h, 0.01 mM [2]: 0.135 ×10⁻⁶ cm/s
Structure (SMILES): CC(=O)NCCSC(=O)CCC(=O)OC(C)C [J]

Papp A→B at 1 h, 0.01 mM [2]: 0.168 ×10⁻⁶ cm/s
Structure (SMILES): CCOC(=O)CCC(=O)SC[C@H](NC(C)=O)C(=O)N(CC)CC [K]

Papp A→B at 1 h, 0.01 mM [2]: 0.097 ×10⁻⁶ cm/s
Structure (SMILES): CCNC(=O)[C@H](CSC(=O)CCC(=O)SC[C@H](NC(=O)CC)C(=O)N(CC)CC)NC(=O)CC [M]
